Measured values taken from publication PMC3942486, “The Ansamycin Antibiotic, Rifamycin SV, Inhibits BCL6 Transcriptional Repression and Forms a Complex with the BCL6-BTB/POZ Domain” (PLoS ONE, 2014).

Legend:
Format in all cases: binding
BCL6-POZ domain [1] = target: T1, BCL6-POZ domain (Homo sapiens, UniProt P41182, C8Q/C67R/C84N); experiment: 1H-15N TROSY-HSQC NMR chemical shift perturbation
T1 construct: POZ domain (residues 7 to 128)

BCL6-POZ domain [2] = target: T1, BCL6-POZ domain; experiment: 1H-15N TROSY-HSQC NMR chemical shift perturbation (weakest of the series)
BCL6-POZ domain [3] = target: T1, BCL6-POZ domain; experiment: 1H-15N TROSY-HSQC NMR chemical shift perturbation; also relieves BCL6 repression in HEK293T luciferase reporter assay
BCL6-POZ domain [4] = target: T2, BCL6-POZ domain (Homo sapiens, UniProt P41182, C67R/C84N/C8Q); experiment: X-ray crystal structure ([…] Å); 1H-15N TROSY-HSQC NMR titration
T2 construct: POZ domain (residues 7 to 128)

SMILES: CO[C@H]1/C=C/O[C@@]2(C)Oc3c(C)c(O)c4c(O)c(c(/C=N/N5CCN(C)CC5)c(O)c4c3C2=O)NC(=O)/C(C)=C\C=C\[C@H](C)[C@H](O)[C@@H](C)[C@@H](O)[C@@H](C)[C@H](OC(C)=O)[C@@H]1C [rifampicin]
- 1H-15N TROSY-HSQC NMR chemical shift perturbation (BCL6-POZ domain [1]): These derivatives all caused spectral changes of varying magnitude with the greatest shifts caused by rifabutin

SMILES: CO[C@H]1/C=C/O[C@@]2(C)Oc3c(C)c(O)c4c(O)c(c5c(nc6cc(C)ccn65)c4c3C2=O)NC(=O)/C(C)=C\C=C\[C@H](C)[C@H](O)[C@@H](C)[C@@H](O)[C@@H](C)[C@H](OC(C)=O)[C@@H]1C [rifaximin]
- 1H-15N TROSY-HSQC NMR chemical shift perturbation (weakest of the series) (BCL6-POZ domain [2]): order of binding from weakest to strongest was: rifaximin, rifapentine, 3-formyl rifamycin, rifampicin, rifamycin SV and rifabutin

SMILES: CO[C@H]1/C=C/O[C@@]2(C)Oc3c(C)c(O)c4c(O)c(c(/C=N/N5CCN(C6CCCC6)CC5)c(O)c4c3C2=O)NC(=O)/C(C)=C\C=C\[C@H](C)[C@H](O)[C@@H](C)[C@@H](O)[C@@H](C)[C@H](OC(C)=O)[C@@H]1C [rifapentine]
- 1H-15N TROSY-HSQC NMR chemical shift perturbation (BCL6-POZ domain [1]): order of binding from weakest to strongest was: rifaximin, rifapentine, 3-formyl rifamycin, rifampicin, rifamycin SV and rifabutin

SMILES: CO[C@H]1/C=C/O[C@@]2(C)Oc3c(C)c(O)c4c(O)c(cc(O)c4c3C2=O)NC(=O)/C(C)=C\C=C\[C@H](C)[C@H](O)[C@@H](C)[C@@H](O)[C@@H](C)[C@H](OC(C)=O)[C@@H]1C [rifamycin SV]
- 1H-15N TROSY-HSQC NMR chemical shift perturbation; also relieves BCL6 repression (BCL6-POZ domain [3]): resulted in a subset of peaks shifting in a concentration dependent manner

SMILES: CO[C@H]1/C=C/O[C@@]2(C)Oc3c(C)c(O)c4c(c3C2=O)C2=NC3(CCN(CC(C)C)CC3)NC2=C(NC(=O)/C(C)=C\C=C\[C@H](C)[C@H](O)[C@@H](C)[C@@H](O)[C@@H](C)[C@H](OC(C)=O)[C@@H]1C)C4=O [rifabutin]
- Kd (BCL6-POZ domain [4]): ~1 mM
